Measurements reported in patent US20100035822A1, “PROLINE-RICH PEPTIDES, PHARMACEUTICAL COMPOSITION, USE OF ONE OR MORE PEPTIDES AND METHOD OF TREATMENT” (priority 2006, published 2010).
Entries after “also recorded” stand apart in the source; their conditions may differ.

What was measured:
[1] = tested on: spontaneously hypertensive rats (SHR); experiment: Anti-hypertensive action on SHR anaesthetized with pentobarbitone; format: in vivo, rat
Experimental: Adult male SHR, weighing between 250 and 350 g, were used. Material and methods described in Example 12 were employed, except for those described below.
1) Five SHR per group were anaesthetized intraperitoneally with 60 mg/Kg body weight with sodium pentobarbitone. Mean arterial blood pressure and heart rate were continuously calculated from arterial blood pressure pulses (PAP). Cardiovascular parameters were monitored during 30 minutes before i.v. administration of peptides SEQ ID NO 1, or SEQ ID NO 4, or SEQ ID NO 8 (71 nmoles/Kg body weight), or captopril (10 μmoles/Kg body weight), in a final volume of 0.5 mL 0.9% NaCl solution. The control was the vehicle (0.9% NaCl). PAM and heart rate were continuously monitored up to 180 minutes after administration of the anti-hypertensive compound.
2) The day before measurements, the SHR underwent surgery for catheter implantation into the femoral artery and vein. […] Cardiovascular parameters of the rats were monitored for 60 minutes before i.v. administration of peptides SEQ ID NO 1, or SEQ ID NO 4, or SEQ ID NO 8 (71 nmoles/Kg body weight), or captopril (10 μmoles/Kg body weight), in a final volume of 0.5 mL 0.9% NaCl solution. […] MAP and heart rate were continuously monitored up to 360 minutes after administration of the peptides.
Results, presented in FIG. 14B, are expressed as mean±SEM. […]

[2] = tested on: spontaneously hypertensive rats (SHR); experiment: Anti-hypertensive effect on mean arterial blood pressure of SHR; format: in vivo, rat
Experimental: In vivo studies on the effect of peptides of the present invention were performed on adult male spontaneously hypertensive rats, and normotensive Wistar rats (Rattus novergicus) weighing 250 to 350 g. Animals had free access to chow (Nuvilab) and water, and were submitted to a light-dark cycle of 12 hours each. Procedures involving animals and their care were conducted according to Giles [Giles A. R. Guidelines for the use of animals in biomedical research. Thromb. Haemost. 58: 1078-1084, 1987]. […]
The cardiovascular parameters (pulse arterial pressure (PAP), mean arterial pressure (MAP), and heart rate (HR)) were monitored by a solid-state strain gauge transducer connected to a computer through a data acquisition system (MP 100; BIOPAC Systems, Inc, Santa Barbara, Calif., USA). The PAP, MAP and HR were continuously presented in different monitor channels and recorded in the computer hard disk for late analysis.
Before drug administration, cardiovascular parameters of the rats were monitored for 40 minutes. […] Arterial blood pressure and heart frequency were continuously monitored for 360 minutes.
Results were expressed as the mean variation of MAP±standard deviation. […]

[3] = Determination of Z-pro metabolites in mice urine; format: in vivo, mouse; details: mice; 0.91 mg/Kg intraperitoneally; urine collected after 24 hours; mass spectrometry; 0.91 mg/kg
Experimental: In vivo hydrolysis of peptides SEQ ID NO 1, SEQ ID NO 4, SEQ ID NO 5, SEQ ID NO 8, and SEQ ID NO 15 was investigated in Swiss male mice weighing approximately 22-25 g, which had free access to food and water, and were kept under a light-dark cycle of 12 hour periods.
Groups of 10 mice were treated intraperitoneally with 0.91 mg/Kg of each proline rich oligopeptide per animal, diluted in 200 μl saline. Treated and control animals (not treated) were kept in metabolic cages, and their urine was collected after 24 hours. The urine was pre-purified in a reverse phase Sep-Pak C18 micro column (Waters), which had been previously equilibrated with solvent A (H2O/0.1% TFA). Samples were eluted with 60% solvent B (90% acetonitrile/10% solvent A), lyophilized, and resuspended in 1 ml deionized water to be centrifuged at 14.000 rpm for 5 minutes. The supernatant (500 μl) was fractionated in an analytic HPLC system. The gradient was 5-65% solvent B for 30 minutes, using a flow rate of 1 ml/min and monitoring at 214 nm. Fractions were lyophilized and ressuspended in acetonitrile/H2O (1:1), containing 0.2% formic acid, and were analyzed by mass spectrometry (Q-TOF-Pro). Urine fractions from control and treated animals were compared to determine the presence of metabolites originated from the peptides being tested.

Compound | effect of pentobarbitone on the anti-hypertensive action [1] | molar dose needed for anti-hypertensive activity relative to the peptides ([2]; e.g. 10 μmoles/Kg, the dose that inhibits ACE in vivo) | dose of optimum anti-hypertensive activity ([2]; effect is reduced at higher and at lower doses) | Metabolites in the urine [3]
CC(CS)C(=O)N1CCC[C@@H]1C(=O)O (stereo partly drawn) [captopril, D-3-mercapto-2-methyl-1-oxopropyl-L-proline, reference compound] | not blocked by pentobarbitone | approximately 1000 fold | – | –
<ENWPHPQIPP [SEQ ID NO 8] | susceptible to the action of pentobarbitone | – | ~71 nmoles/Kg of body weight | <ENWPHPQIPP; also recorded: <ENWPHPQIP
